# Experimental data from US6759403B2, “Metalloporphyrins and their uses as radiosensitizers for radiation therapy” (Brookhaven Science Associates, LLC, priority 2001, dated 2004).
# Key:
# [1] = tested on: EMT-6 mammary carcinomas; assay: Biodistribution study of CuTCPBr in mice with EMT-6 mammary carcinomas on the back (Example 5); assay type: in vivo, BALB/c mice; conditions: for Boron Concentration, Tumor / Boron Concentration, Blood / Boron Concentration, Brain / Boron Concentration, Ears (skin) / Boron Concentration, Liver / Boron Concentration, Spleen / Boron Concentration, Tongue: 6 ip injections over 2 days
# Method: Two groups of seven (7) BALB/c mice bearing EMT-6 mammary carcinomas on the back were given CuTCPBr at a dose of 432 μg/g body weight (94 μg B/gbw) in six intraperitoneal injections over two days. Two days after the last injection, the mice in one group were euthanized and the boron concentrations in various tissues were measured. Four days after the last injection, the same procedure was carried out on the second group of mice. The average boron concentrations (mean with standard deviation in parentheses) for the two groups of mice injected with CuTCPBr are listed in the second and third columns of Table 4.
# The tumor to blood boron concentration ratio after two days was approximately 8:1 and after four days it increased to 232:1. The tumor to brain boron concentration ratio after two days was approximately 197:1 and after four days it increased to 225:1.
# [2] = tested on: EMT-6 leg tumors; assay: Boron biodistribution in mice with subcutaneous EMT-6 leg tumors (Example 3); assay type: in vivo, BALB/c mice; conditions: for Boron Concentration, Blood / Boron Concentration, Liver / Boron concentration, Cerebrum / Boron concentration, Ears / Boron Concentration, Tumor: 156 μg CuTCPBr/gbw over 2 days; for Boron Concentration, Tumor / Tumor boron concentration normalized to the dose of the first study: leg tumor; for Tumor boron concentration normalized to the dose of the first study: normalized from 156 to 186 μg/g dose
# Method: In this example, BALB/c mice bearing subcutaneous EMT-6 leg tumors were given 156 μg CuTCPBr/gbw in a volume of 0.01 mL/gbw/injection over a period of 2 days.
# There is a larger vascular system surrounding the dorsal thorax compared with the leg, which may be a factor. However, in the case of CuTCPH, the boron concentration was 30% higher in leg tumors compared to back tumors. Normalizing to the slightly higher dose of the first study, the tumor boron concentration should be about 29 and 15 μg/g at 2d and 5d, respectively, which are still low. Studies are underway to repeat these experiments.
# [3] = tested on: EMT-6 mammary carcinomas; assay: Boron biodistribution in mice with EMT-6 tumors of the dorsal thorax (Example 2); assay type: in vivo, BALB/c mice; conditions: 186 μg CuTCPBr/g body weight total, 6 ip injections over 2 days; 4 days after last injection
# Method: Five BALB/c mice bearing subcutaneously implanted EMT-6 mammary carcinomas on the dorsal thorax were given a total dose of 186 μg CuTCPBr/g body weight in 6 intraperitoneal (ip) injections over a period of 2 days. Four days after the last injection mice were euthanized and the average boron concentrations (μg/g wet tissue) were measured for different types of tissue.
# [4] = Toxicity observation during and after porphyrin administration and at necropsy (Examples 2 and 3); assay type: in vivo; conditions: Examples 2 and 3 (186 or 156 μg CuTCPBr/g)
# From the text: Toxicity is the critical factor, and since no toxicity was observed, the dose can be increased to achieve tumor boron concentrations higher than those in Examples 2 and 3.
# [5] = tested on: EMT-6 mammary tumors; assay: Boron concentrations in tissues at the time of irradiation (Example 8); assay type: in vivo, BALB/c mice; conditions: ≈400 μg/g body weight CuTCPBr, euthanized the day of irradiation
# From the text: (§1) In this example, female BALB/c mice (Taconic Farms, Germantown, N.Y.) (20-25 g) were used in radiotherapy studies to compare tumor control effects in mice bearing EMT-6 mammary tumors. The EMT-6 leg tumors were formed by mincing freshly removed tumor tissue from mice into fragments no larger than 0.5 mm. The fragments were mixed in a saline solution and implanted subcutaneously (sc) in the legs of mice using an 18-gauge trocar. Tumor fragments were used because in this particular location tumors initiated by cell suspensions tend to spread in a thin subcutaneous layer and invade the subjacent muscle. Using tumor fragments, the tumors are palpable, but thinner on the leg than on the dorsal thorax. In late stage, fragment-initiated tumors can invade muscle tissue but not as frequently as do suspension-initiated tumors.
# (§2) At approximately seven days after tumor implantation, the mice were stratified by tumor volume into six (6) matched experimental groups, which included five groups of twelve (12) mice each and a control group of thirty-three (33). Two groups were treated with ≈400 μg/g body weight CuTCPBr and given two doses of 100 kVp x-irradiation x-rays, two groups were treated with only two doses of 100 kVp x-irradiation, one group received CuTCPBr and were euthanized the day of irradiation. The function of the group which was immediately euthanized was to determine the boron concentration in tissues at the time of irradiation. It was not a control group upon which the effectiveness of treatment was compared. The control group of thirty-three mice was not treated at all.
# Tumor to blood boron concentration ratios were about 4:1, which is low due to the high blood values. Such a trend was also observed with CuTCPH at high doses of 400 mg/kg.
# [6] = tested on: EMT-6 mammary tumors; assay: Radiosensitizer study: tumor control with 100 kVp x-irradiation (Example 8); assay type: in vivo, BALB/c mice; conditions: for % tumor control: 89 days observation
# From the text: as §1, §2
# In all treated groups, single-exposure irradiations were used. For the irradiation procedures, mice were anesthetized with sodium pentobarbital (≈60 μg/gbw i.p.). Each mouse was anesthetized and positioned behind a 1-cm thick lead shield with the tumor-bearing leg extended across a 2-cm aperture in the lead shield in a manner similar to that used in thermal beam irradiation. […]
# Tumor volumes ranged from approximately 20-170 mm^3 in each of the five groups of treated mice. Tumor dimensions were measured 2-3 times per week and mice were euthanized either when calculated tumor volumes (x^2y/2, where x is the shorter surface dimension) exceeded 500 mm^3 or when skin ulceration was observed. Mice were weighed when the tumors were measured, except during the first week, when they were weighed daily. […]
# Mice were euthanized at various time points due to tumor overgrowth. The effectiveness of the treatments was measured by the “% tumor control.” The % tumor control is defined as the number of mice whose tumors were “cured” divided by the total number of mice in a particular dose group. […]
# [7] = CuTCPBr 432 μg/g body weight, after 2 days
# [8] = CuTCPBr 432 μg/g body weight, after 4 days
substance,measurement,setting,value
copper octabromotetracarboranylphenylporphyrin [CuTCPBr],"Boron Concentration, Tumor","[1]; CuTCPBr 432 μg/g body weight (94 μg B/gbw), after 2 days",256 (51) μg/g
same,"Boron Concentration, Blood",[1]; [7],30 (12) μg/g
same,"Boron Concentration, Brain",[1]; [7],1.3 (0.4) μg/g
same,"Boron Concentration, Ears (skin)",[1]; [7],16 (4.3) μg/g
same,"Boron Concentration, Liver",[1]; [7],831 (102) μg/g
same,"Boron Concentration, Spleen",[1]; [7],507 (60) μg/g
same,"Boron Concentration, Tongue",[1]; [7],43 (4.1) μg/g
same,"Boron Concentration, Blood",[1]; [8],0.8 (0.2) μg/g
same,"Boron Concentration, Brain",[1]; [8],0.7 (0.1) μg/g
same,"Boron Concentration, Ears (skin)",[1]; [8],12 (1.6) μg/g
same,"Boron Concentration, Liver",[1]; [8],592 (24) μg/g
same,"Boron Concentration, Spleen",[1]; [8],336 (40) μg/g
same,"Boron Concentration, Tongue",[1]; [8],37 (4.0) μg/g
same,"Boron Concentration, Tumor",[1]; [8],180 (27) μg/g
same,decrease of liver boron from two to four days,"[1]; CuTCPBr 432 μg/g body weight, indicates faster clearance time",29%
same,"Boron Concentration, Blood",[2]; 2 days after last injection,0.2 ± 0.1 µg/g
same,"Boron Concentration, Liver",[2]; 2 days after last injection,271 ± 40 µg/g
same,"Boron concentration, Cerebrum",[2]; 2 days after last injection,0 ± 0.1 µg/g
same,"Boron concentration, Ears",[2]; 2 days after last injection,1 ± 1 µg/g
same,"Boron Concentration, Tumor",[2]; 2 days after last injection,24 ± 11 µg/g
same,"Boron Concentration, Blood",[2]; 5 days after last injection,0.1 ± 0.1 µg/g
same,"Boron Concentration, Liver",[2]; 5 days after last injection,308 ± 40 µg/g
same,"Boron concentration, Cerebrum",[2]; 5 days after last injection,0.6 ± 1 µg/g
same,"Boron concentration, Ears",[2]; 5 days after last injection,0.6 ± 0.7 µg/g
same,"Boron Concentration, Tumor",[2]; 5 days after last injection,13 ± 6 µg/g
same,Tumor boron concentration normalized to the dose of the first study,[2]; 2d,about 29 μg/g
same,Tumor boron concentration normalized to the dose of the first study,[2]; 5d,~15 µg/g
same,"Boron Concentration, Blood",[3],0.6 ± 0.2 μg B/g wet tissue
same,"Boron Concentration, Brain",[3],0.5 ± 0.1 μg B/g wet tissue
same,"Boron Concentration, Liver",[3],272 ± 93 μg B/g wet tissue
same,"Boron Concentration, Tumor",[3],84 ± 15 μg B/g wet tissue
same,tissues at necropsy,[4],all tissues appeared normal
same,"toxic effects, physically or behaviorally",[4]; during and after porphyrin administration,no toxic effects were noted
same,"Boron Concentration, Blood",[5],68 (19) μg/g
same,"Boron Concentration, Liver",[5],725 (72) μg/g
same,"Boron Concentration, Muscle",[5],12 (3) μg/g
same,"Boron Concentration, Skin",[5],20 (4.3) μg/g
same,"Boron Concentration, Tumor",[5]; leg tumor,277 (45) μg/g
same,dose modification factor,[6]; CuTCPBr in combination with x-irradiation,> 1.5
same,radiosensitizing effect,[6]; single dose x-irradiation in the presence of CuTCPBr,clear radiosensitizing effect
same,% tumor control,"[6]; ≈400 μg/g CuTCPBr plus single-dose 25 Gy 100 kVp x-rays, x-rays alone 25.0%",41.7%
same,% tumor control,"[6]; ≈400 μg/g CuTCPBr plus single-dose 35 Gy 100 kVp x-rays, x-rays alone 33.3%",66.7%
